PubChem BioAssay AID330 (DTP/NCI, 2004)
Where “and” joins values, the source holds several entries; their conditions need not be identical. Equal entries are not always repeated. Toxic doses and inconclusive results are not listed.

Test system: P388 leukemia ip, CD2F1 mice, survival T/C
Assay: NCI In Vivo Anticancer Drug Screen. Data for tumor model P388 Leukemia (intraperitoneal) in CD2F1 (CDF1) mice
Details: endpoint: median survival time, higher = longer survival
Protocol: The antitumor activity of compounds was measured in mice bearing transplantable tumors. Survival or tumor size were measured and the results are expressed as the measurement made in the treated group (T) divided by the measurement made in the vehicle treated control group (C). The tumor model used in this assay is P388 Leukemia (intraperitoneal) in CD2F1 (CDF1) mice

[1] = dose: 25.0 mg/kg/injection, schedule: Q01DX009 (ip), vehicle: Klucel (hydroxypropylcellulose) (HPC)
[2] = dose: 50.0 mg/kg/injection, schedule: Q01DX009 (ip), vehicle: Klucel (hydroxypropylcellulose) (HPC)
[3] = dose: 100.0 mg/kg/injection, schedule: Q01DX009 (ip), vehicle: Klucel (hydroxypropylcellulose) (HPC)
[4] = dose: 50.0 mg/kg/injection, schedule: Q01DX009 (ip), vehicle: saline
[5] = dose: 100.0 mg/kg/injection, schedule: Q01DX009 (ip), vehicle: saline
[6] = dose: 50.0 mg/kg/injection, schedule: Q01DX005 (ip), vehicle: Klucel (hydroxypropylcellulose) (HPC)
[7] = dose: 100.0 mg/kg/injection, schedule: Q01DX005 (ip), vehicle: Klucel (hydroxypropylcellulose) (HPC)
[8] = dose: 200.0 mg/kg/injection, schedule: Q01DX005 (ip), vehicle: Klucel (hydroxypropylcellulose) (HPC)
[9] = dose: 50.0 mg/kg/injection, schedule: Q01DX009 (ip), vehicle: saline with Tween-80
[10] = dose: 100.0 mg/kg/injection, schedule: Q01DX009 (ip), vehicle: saline with Tween-80
[11] = dose: 200.0 mg/kg/injection, schedule: Q01DX009 (ip), vehicle: saline with Tween-80
[12] = dose: 400.0 mg/kg/injection, schedule: Q01DX009 (ip), vehicle: saline with Tween-80
[13] = dose: 50.0 mg/kg/injection, schedule: Q01DX005 (ip), vehicle: saline with Tween-80
[14] = dose: 100.0 mg/kg/injection, schedule: Q01DX005 (ip), vehicle: saline with Tween-80
[15] = dose: 200.0 mg/kg/injection, schedule: Q01DX005 (ip), vehicle: saline with Tween-80
[16] = dose: 200.0 mg/kg/injection, schedule: Q01DX009 (ip), vehicle: Klucel (hydroxypropylcellulose) (HPC)

For S=C(Nc1ccc(Br)c(Cl)c1)SCc1ccc2c(c1)OCO2, the T/C [1] was 121 % of control, the T/C [2] was 107 % of control and the T/C (dose: 50.0 mg/kg/injection, schedule: Q01DX009 (ip), vehicle: suspension in saline) was 105 % of control. The T/C [3] was 123 % of control, the T/C (dose: 100.0 mg/kg/injection, schedule: Q01DX009 (ip), vehicle: suspension in saline) was 104 % of control and the T/C (dose: 200.0 mg/kg/injection, schedule: Q01DX009 (ip), vehicle: suspension in saline) was 116 % of control.
With O=C(OCN1C(=O)C2C3C=CC(C2C1=O)C1C2C(=O)N(COC(=O)C4CCCN4)C(=O)C2C31)C1CCCN1 (stereo unspecified) the T/C (dose: 25.0 mg/kg/injection, schedule: Q01DX009 (ip), vehicle: saline) was 105 % of control and 108 % of control, the T/C [4] was 108 % of control and the T/C [5] was 162 % of control and 205 % of control.
In the case of Nc1ccc(S(=O)(=O)NC(CSSCC(NS(=O)(=O)c2ccc(N)cc2)C(=O)O)C(=O)O)cc1 (stereo unspecified), the T/C [6] is reported as 110 % of control, the T/C [7] is reported as 101 % of control and the T/C [8] is reported as 113 % of control.
NNc1nncn1N was tested, and the T/C [4] was 104 % of control and 91 % of control, the T/C [5] was 104 % of control and 89 % of control and the T/C (dose: 200.0 mg/kg/injection, schedule: Q01DX009 (ip), vehicle: saline) was 86 % of control and 95 % of control.
In the case of CCCCCC(CN1CCCCC1)C(=O)/C=C/c1ccccc1 (stereo unspecified), the T/C (dose: 25.0 mg/kg/injection, schedule: Q01DX009 (ip), vehicle: saline with Tween-80) is reported as 101 % of control, the T/C [9] is reported as 107 % of control and the T/C [10] is reported as 117 % of control.
O=C([O-])[O-].O=[N+]([O-])O.[Co+3].[NH2-].[NH2-].[NH2-].[NH2-] was tested, and the T/C [10] was 122 % of control, the T/C [11] was 113 % of control and the T/C [12] was 100 % of control.
CCc1nc(N)nc(N)c1-c1ccc(N(C)C2CCCCC2)c([N+](=O)[O-])c1 was tested, and the T/C (dose: 60.0 mg/kg/injection, schedule: Q01DX005 (ip), vehicle: saline with Tween-80) was 105 % of control and 106 % of control, the T/C (dose: 120.0 mg/kg/injection, schedule: Q01DX005 (ip), vehicle: saline with Tween-80) was 115 % of control and the T/C (dose: 240.0 mg/kg/injection, schedule: Q01DX005 (ip), vehicle: saline with Tween-80) was 103 % of control. For the same molecule, the T/C (dose: 480.0 mg/kg/injection, schedule: Q01DX005 (ip), vehicle: saline with Tween-80) was 168 % of control.
O=C(NC(Cc1c[nH]c2ccccc12)C(=O)NC(Cc1ccc(O)cc1)C(=O)O)OCc1ccccc1 (stereo unspecified) was tested, and the T/C [13] was 101 % of control, the T/C [14] was 106 % of control and the T/C [15] was 89 % of control.
For CCC(C)NC(=O)C(C)O (stereo unspecified), the T/C (dose: 50.0 mg/kg/injection, schedule: Q01DX005 (ip), vehicle: saline) was 95 % of control, the T/C (dose: 100.0 mg/kg/injection, schedule: Q01DX005 (ip), vehicle: saline) was 99 % of control and the T/C (dose: 200.0 mg/kg/injection, schedule: Q01DX005 (ip), vehicle: saline) was 97 % of control.
In the case of CCOP(=O)(O)C1CCCC(C)[N-]1.CCOP(=O)(O)C1CCCC(C)[N-]1.[Ni+2] (stereo unspecified), the T/C (dose: 12.5 mg/kg/injection, schedule: Q04DX003 (ip), vehicle: Klucel (hydroxypropylcellulose) (HPC)) is reported as 99 % of control, the T/C (dose: 25.0 mg/kg/injection, schedule: Q04DX003 (ip), vehicle: Klucel (hydroxypropylcellulose) (HPC)) is reported as 107 % of control and the T/C (dose: 50.0 mg/kg/injection, schedule: Q04DX003 (ip), vehicle: Klucel (hydroxypropylcellulose) (HPC)) is reported as 107 % of control.
CCCCCN(CCCCC)C(C)C(=O)c1ccc(Cl)cc1 (stereo unspecified) was tested, and the T/C [6] was 100 % of control, the T/C [7] was 100 % of control and the T/C [8] was 100 % of control.
With O=S(=O)(O)c1ccc(OCCCCCCCCCCOc2ccc(S(=O)(=O)O)cc2)cc1 the T/C (dose: 60.0 mg/kg/injection, schedule: Q01DX005 (ip), vehicle: saline) was 105 % of control, the T/C (dose: 120.0 mg/kg/injection, schedule: Q01DX005 (ip), vehicle: saline) was 102 % of control and the T/C (dose: 240.0 mg/kg/injection, schedule: Q01DX005 (ip), vehicle: saline) was 98 % of control.
For CCCCCCCN1CCS(=O)(=O)CC1, the T/C [2] was 93 % of control, the T/C [3] was 98 % of control and the T/C [16] was 97 % of control.
O=C(Nc1cnns1)Oc1ccccc1 was tested, and the T/C (dose: 12.5 mg/kg/injection, schedule: Q01DX009 (ip), vehicle: other) was 117 % of control, the T/C (dose: 25.0 mg/kg/injection, schedule: Q01DX009 (ip), vehicle: other) was 92 % of control and the T/C (dose: 50.0 mg/kg/injection, schedule: Q01DX009 (ip), vehicle: other) was 93 % of control. The T/C (dose: 100.0 mg/kg/injection, schedule: Q01DX009 (ip), vehicle: other) was 92 % of control and the T/C (dose: 200.0 mg/kg/injection, schedule: Q01DX009 (ip), vehicle: other) was 97 % of control.
In the case of COC1(c2ccc(C)cc2)OC12CCN(C)CC2 (stereo unspecified), the T/C [13] is reported as 106 % of control, the T/C [14] is reported as 95 % of control and the T/C [15] is reported as 106 % of control.
In the case of Cc1ccc(S(=O)(=O)OCCN2CC2)cc1, the T/C [9] is reported as 94 % of control, the T/C [10] is reported as 89 % of control and the T/C [11] is reported as 99 % of control.
For O=[N+]([O-])c1ccc(Sc2ncccn2)cc1, the T/C (dose: 25.0 mg/kg/injection, schedule: Q04DX002 (ip), vehicle: suspension in saline) was 108 % of control, the T/C (dose: 50.0 mg/kg/injection, schedule: Q04DX002 (ip), vehicle: suspension in saline) was 94 % of control and the T/C (dose: 100.0 mg/kg/injection, schedule: Q04DX002 (ip), vehicle: suspension in saline) was 101 % of control. The T/C (dose: 200.0 mg/kg/injection, schedule: Q04DX002 (ip), vehicle: suspension in saline) was 100 % of control and the T/C (dose: 400.0 mg/kg/injection, schedule: Q04DX002 (ip), vehicle: suspension in saline) was 96 % of control.
CS(=O)(=O)OCc1cc(=O)c(OS(C)(=O)=O)co1 was tested, and the T/C [13] was 108 % of control, the T/C [14] was 110 % of control and the T/C [15] was 112 % of control.
For CN=NNc1ccc([N+](=O)[O-])cc1, the T/C (dose: 12.5 mg/kg/injection, schedule: Q01DX009 (ip), vehicle: Klucel (hydroxypropylcellulose) (HPC)) was 98 % of control and 94 % of control, the T/C [1] was 103 % of control and 109 % of control and the T/C [2] was 108 % of control and 111 % of control. The T/C [3] was 112 % of control and the T/C [16] was 167 % of control.
For CSc1nc(COC(=O)NC(C)C)c(COC(=O)NC(C)C)n1Cc1ccccc1, the T/C (dose: 12.5 mg/kg/injection, schedule: Q01DX005 (ip), vehicle: saline with Tween-80) was 98 % of control, the T/C (dose: 25.0 mg/kg/injection, schedule: Q01DX005 (ip), vehicle: saline with Tween-80) was 101 % of control and the T/C [13] was 100 % of control and 110 % of control. The T/C [14] was 98 % of control and 111 % of control and the T/C [15] was 116 % of control.
In the case of CCOC(=O)c1sc(SSc2sc(C(=O)OCC)c(-c3ccccc3)c2[N+](=O)[O-])c([N+](=O)[O-])c1-c1ccccc1, the T/C (dose: 100.0 mg/kg/injection, schedule: Q04DX002 (ip), vehicle: saline with Tween-80) is reported as 104 % of control, the T/C (dose: 200.0 mg/kg/injection, schedule: Q04DX002 (ip), vehicle: saline with Tween-80) is reported as 107 % of control and the T/C (dose: 400.0 mg/kg/injection, schedule: Q04DX002 (ip), vehicle: saline with Tween-80) is reported as 118 % of control.
O=C(CC(O)(C(F)(F)Cl)C(F)(F)Cl)c1ccco1 was tested, and the T/C (dose: 50.0 mg/kg/injection, schedule: Q04DX003 (ip), vehicle: saline with Tween-80) was 109 % of control, the T/C (dose: 100.0 mg/kg/injection, schedule: Q04DX003 (ip), vehicle: saline with Tween-80) was 118 % of control and the T/C (dose: 200.0 mg/kg/injection, schedule: Q04DX003 (ip), vehicle: saline with Tween-80) was 100 % of control.
With CCC(C)/C(=C\C#N)NCCCN/C(=C/C#N)C(C)CC (stereo unspecified) the T/C (dose: 3.75 mg/kg/injection, schedule: Q01DX005 (ip), vehicle: Klucel + Tween-80) was 100 % of control, the T/C (dose: 7.5 mg/kg/injection, schedule: Q01DX005 (ip), vehicle: Klucel + Tween-80) was 109 % of control and the T/C (dose: 15.0 mg/kg/injection, schedule: Q01DX005 (ip), vehicle: Klucel + Tween-80) was 92 % of control and 98 % of control. The T/C (dose: 60.0 mg/kg/injection, schedule: Q01DX005 (ip), vehicle: Klucel + Tween-80) was 86 % of control and the T/C (dose: 120.0 mg/kg/injection, schedule: Q01DX005 (ip), vehicle: Klucel (hydroxypropylcellulose) (HPC)) was 88 % of control.
CCCCNC(=O)C1C2C=CC(O2)C1C(=O)O (stereo unspecified) was tested, and the T/C [6] was 100 % of control, the T/C [7] was 93 % of control and the T/C [8] was 89 % of control.
For O=C(NN1C(=O)CS(=O)(=O)C1c1ccc(F)cc1)c1ccncc1 (stereo unspecified), the T/C [13] was 98 % of control, the T/C [14] was 97 % of control and the T/C [15] was 88 % of control.
For CCOC(=O)CCC(NC(=O)c1ccc(NCCC(C)=O)cc1)C(=O)OCC (stereo unspecified), the T/C [9] was 104 % of control, the T/C [10] was 105 % of control and the T/C [11] was 104 % of control. The T/C [12] was 105 % of control.
For CC1=C(C(C)(C)C)C(=O)c2ccccc2C1=O, the T/C [6] was 100 % of control, the T/C [7] was 103 % of control and the T/C [8] was 107 % of control.
